This note sets out measurements from patent publication US20220073532A1, “INHIBITORS OF CGAS ACTIVITY AS THERAPEUTIC AGENTS” (BELLBROOK LABS, LLC, priority 2019, published 2022).

The structures appear in SMILES notation. Entries after “also recorded” stand apart in the source; their conditions may differ. Where two headings read alike, the source gives them in different places. Where only a bound is given, the exact number is not on record here.

By Kd is commonly meant the constant that tells how readily two partners part at equilibrium.

For assay [1], the system named is IRF3-driven Luc expression in THP-1 Dual cells. The experiment in a line: THP-1 Dual IRF3-Luc reporter assay. Particulars: for inhibition of IRF3-dependent Luc expression: THP-1 Dual cells, induced by DNA or cGAMP; for cGAS-dependent cellular activity: human monocyte cell line THP-1. The format is cell-based, human. How it is done:
(§1) IFN induction in human monocyte cell lines: The human monocyte cell line THP-1 gives a robust cGAS/STING-dependent type I IFN response and has been used extensively for studies on the pathway. Typically, cells are stimulated by transfection with dsDNA and gene expression is assessed using an ELISA for IFNβ, a reporter gene assay, and/or cGAS/STING pathway markers such as STING phosphorylation. These assays were validated using the TBK1 inhibitor, BX-795, which acts downstream of cGAS/STING, as a probe; THP-1 Dual cells (Invivogen, San Diego) are used as the reporter cell line for routine compound testing (FIG. 5A). These assays were optimized, including equalizing responses with transfected DNA and cGAMP and comparing responses between undifferentiated cells and cells that have been differentiated to macrophages (which show little difference). […] Stimulation of THP-1 Dual cells with damage-associated molecular pattern molecules (DAMPs) that act through pattern recognition receptors other than cGAS provides another way to confirm the specificity of putative cGAS inhibitors.

Assay [2] deals with NFκB-driven SEAP expression in THP-1 Dual cells. The experiment in a line: THP-1 Dual NFκB-SEAP reporter assay. The class given is cell-based, human. How it is done: as §1
On the technique in general: Reporter assays use an easily measured gene product as a stand-in for the process of interest.

In a further assay the test system is THP1 cGAS KO cells. The experiment in a line: Specificity test in THP-Dual cGAS knockout cells. Particulars: LPS-stimulated, cGAS KO. The class given is cell-based, human.
From the text: FIG. 5 includes (A) a schematic showing the THP1 dual-cell reporter system: secreted luciferase reports on IRF3-driven transcription; secreted alkaline phosphatase reports on NFκB-driven transcription, both downstream of cGAS/STING. THP-Dual cGAS knockout cells are used to test for non-specific effects; (B) a plot of the dose response for inhibition of Luc expression by Compound 15; (C) a plot of the dose response for inhibition of Luc expression by the TBK1 inhibitor, BX-795; and (D) a plot of the dose response for inhibition of SEAP expression by Compound 15.
as §1

The target in assay [3] is T1, cGAS (Homo sapiens, UniProt Q8N884). The experiment in a line: SPR / biophysical binding to cGAS. As to conditions: SPR; read-out: Kd determined with SPR. An excerpt:
Following confirmation of hits at three concentrations and removal of compounds with visually evident reactivity or metabolic liabilities, non-stoichiometric inhibitors, aggregators, DNA intercalators and redox-active compounds were triaged (FIG. 2E) using established assays. […] Initial SAR based on more than 100 commercially available analogs provided additional confidence that the compounds were bonafide inhibitors, and informed potential scaffold hops and toleration for modifications.
A highly efficient platform for preclinical drug discovery (FIG. 3) was assembled, providing for development of cGAS inhibitors, which is improved by the addition of a powerful computational modeling method and in vivo PK studies (FIG. 3). […]
Biochemical and biophysical analysis: Potency and MOA studies, including Mn^2+ sensitivity, are performed using the cGAS enzymatic assay. […] Competition with ATP and GTP is assessed by comparing basal IC50 values to those in the presence of saturating ATP or GTP, and subsequently confirmed by measuring velocity vs. substrate at varying ATP or GTP levels. […]

Assay [4] deals with T1, cGAS. The experiment in a line: cGAS enzymatic assay (FP/TR-FRET detection of cGAMP). The class given is biochemical. More on the design: The cGAS assay was used to screen 100,000 compounds with full-length human cGAS; 6xHis; made in house. How it is done: Some exemplary compounds of the disclosure were tested for inhibition of cGAS (30 nM). The results are provided in Table 1 where “A” indicates an IC50 of less than 100 nM, “B” indicates an IC50 of greater than 100 nM and less than 500 nM, “C” indicates an IC50 of greater than 500 nM and less than 1 μM, “D” indicates an IC50 of greater than 1 μM and less than 10 μM, and “E” indicates an IC50 of greater than 10 μM.
A homogenous cGAS enzymatic assay was developed with fluorescence polarization (FP) and time-resolved Forster resonance energy transfer (TR-FRET) readouts (FIG. 2A-2D). The cGAS assay was used to screen 100,000 compounds with full-length human cGAS (FIG. 2E), resulting in the identification of the novel chemotype of the disclosure, two of which are further developed in a structure-driven hit-to-lead study (Table 3, below). The assay performance was robust, as indicated by respective Z and Z′ values of 0.59 and 0.63 in the screen; compounds with polarization values greater than three SDs from the mean were considered hits; a scatterplot from 10 plates (3,200 compounds) is shown in FIG. 2D.
Biochemical and biophysical analysis: Potency and MOA studies, including Mn^2+ sensitivity, are performed using the cGAS enzymatic assay. Dose response experiments are used to determine IC50 values under basal conditions (5 mM MgCl2, 100 μM ATP/GTP), and with the addition of physiological levels of Mn (0.2 mM) using human and mouse cGAS. Ligand optimization is driven by potency with the human enzyme; potency with mouse cGAS informs selection of an appropriate disease model for efficacy studies. Competition with ATP and GTP is assessed by comparing basal IC50 values to those in the presence of saturating ATP or GTP, and subsequently confirmed by measuring velocity vs. substrate at varying ATP or GTP levels. Inhibitor residence times (1/koff) are used as a key parameter for prioritizing compounds and driving SAR, because a longer residence time often results from an allosteric mechanism, and can also correlate with improved cellular activity. The cGAS enzymatic assay is used with the jump dilution method to measure residence times (inhibitor dissociation rates), as described for kinases using the very similar ADP assay. Biophysical methods, including SPR and TSA, are used as orthologous methods for residence time measurements and kd estimates.

The subject of assay [5] is IFNβ expression in THP-1 cells. As to the kind of experiment: IFNβ ELISA in THP-1 cells. The format is cell-based, human. How it is done:
as §1
(In an ELISA, binding on a coated surface is turned into a signal by an enzyme label.)

Assay [6] deals with interferon-sensitive gene (ISG) expression in THP1-dual cells. As to the kind of experiment: ISG mRNA expression by RT-PCR in THP1-dual cells. The class given is cell-based, human. As to conditions: 24 hours, normalized to β-actin. How it is done: FIG. 6A illustrates activity of IFNβ expression of the compounds of disclosure. FIG. 6B illustrates inhibition of reporter genes from cGAS/STING-driven promoters of compound 28 in THP1-dual cells. FIG. 6C illustrates the ISG mRNA expression of compound 28 in THP1-dual cells. Compound 28 in concentration of 200 μM was evaluated after 24 hours. The results were normalized to β-actin.

[7] abbreviates: cGAS (30 nM), with Mn^2+, read-out: Inhibition cGAS + Mn^2+.
The mark [8] stands for this setting: cGAS (30 nM), read-out: Inhibition cGAS.

T1 sequence (Q8N884 whole entry): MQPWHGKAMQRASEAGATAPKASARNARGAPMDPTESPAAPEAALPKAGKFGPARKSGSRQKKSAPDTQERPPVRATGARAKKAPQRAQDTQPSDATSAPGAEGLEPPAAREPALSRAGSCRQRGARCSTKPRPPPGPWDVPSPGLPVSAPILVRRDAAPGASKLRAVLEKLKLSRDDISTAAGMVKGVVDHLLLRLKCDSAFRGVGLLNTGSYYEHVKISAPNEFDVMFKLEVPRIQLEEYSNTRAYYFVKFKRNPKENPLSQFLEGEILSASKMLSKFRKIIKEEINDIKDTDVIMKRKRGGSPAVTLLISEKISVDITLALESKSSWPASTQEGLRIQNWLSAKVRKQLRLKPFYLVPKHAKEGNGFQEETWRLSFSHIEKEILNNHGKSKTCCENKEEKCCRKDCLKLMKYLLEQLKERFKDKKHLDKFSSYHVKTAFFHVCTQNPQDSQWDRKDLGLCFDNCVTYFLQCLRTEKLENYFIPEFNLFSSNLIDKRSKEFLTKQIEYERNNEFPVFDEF

For `O=C(NCCCNc1nc(Nc2cccc(NC(=O)N3CCCC3)c2)ncc1I)c1cccs1` [BX-795, reference compound], the “inhibition of IRF3-dependent Luc expression” value in assay [1] is recorded as “dose-dependent inhibition”. For the same compound, the “inhibition of NFκB-driven SEAP expression” value in assay [2] (THP-1 Dual cells) was “did not inhibit”. The “effect on IRF3-driven Luc expression in THP1 cGAS KO cells stimulated with LPS” value in the assay on THP1 cGAS KO cells is reported as “inhibited with an expected potency”.

With `CCc1nc(N2CCC[C@H]2C(=O)O)c2oc3ccccc3c2n1` [Compound 1, (2-ethylbenzofuro[3,2-d]pyrimidin-4-yl)-L-proline], the Kd at cGAS [3] is 2.4 µM. Further, the IC50 at cGAS [4] (5 mM Mg^2+, 0.2 mM Mn^2+, read-out: IC50 (5 mM Mg^2+, 0.2 mM Mn^2+)) is 19 µM; on cGAS [4] (5 mM Mg^2+, read-out: IC50 (5 mM Mg^2+)) it was 2.6 µM; on cGAS [4] (setting [7]), over 10 µM; at cGAS [4] (setting [8]) it was 1 to 10 µM; on cGAS [4] (read-out: IC50 in the cGAS enzymatic assay), 1.26 µM.

`Cc1nc(N2C[C@@H](CC(=O)Nc3ccncc3)C[C@H]2C(=O)O)c2oc3ccccc3c2n1` [Compound 28, (2S,4R)-1-(2-methylbenzofuro[3,2-d]pyrimidin-4-yl)-4-(2-oxo-2-(pyridin-4-ylamino)ethyl)pyrrolidine-2-carboxylic acid]: the IC50 in assay [1] (Homo sapiens, THP1-dual cells, read-out: Cellular IRF3-Luc IC50) was 20 µM; in assay [2] (Homo sapiens, THP1-dual cells, read-out: Cellular NFκB-SEAP IC50), 9 µM; in assay [5] (Homo sapiens, read-out: Cellular IFNβ ELISA IC50), 13 µM; on cGAS [4] (100 μM ATP/GTP, read-out: Enzymatic FP Std (100 μM ATP/GTP) IC50), 0.356 µM; at cGAS [4] (1 mM ATP/GTP, read-out: Enzymatic FP Physiological (1 mM ATP/GTP) IC50), 3.25 µM; at cGAS [4] (setting [8]) it was 0.1 to 0.5 µM. Moreover, the “inhibition of IFNβ expression” value in assay [5] was “reproducible inhibition; also recorded: inhibit IFNβ expression”. For the same compound, the “specificity: DNA- versus cGAMP-stimulated cells” value in assay [5] was “specific for DNA-stimulated cells; also recorded: more potent inhibition of cells stimulated with DNA than those stimulated with cGAMP”. Moreover, the “ISG expression (fold decrease @ 200 μM)” value in assay [6] is recorded as 2-3×.

Turning to `Cc1nc(N2C[C@@H](Nc3n[nH]cc3C3CC3)C[C@H]2C(=O)O)c2oc3ccccc3c2n1` [Compound 53, (2S,4S)-4-((4-cyclopropyl-1H-pyrazol-3-yl)amino)-1-(2-methylbenzofuro[3,2-d]pyrimidin-4-yl)pyrrolidine-2-carboxylic acid], the “inhibition of IRF3-dependent Luc expression” value in assay [1] is “reproducible inhibition”. Besides, the “inhibition of IFNβ expression” value in assay [5] was “inhibit IFNβ expression”. Also, the IC50 on cGAS [4] (setting [7]) fell in the range of 1 to 10 µM; at cGAS [4] (setting [8]) it was 0.1 to 0.5 µM.

Take `Cc1nc(N2C[C@@H](Nc3n[nH]cc3-c3ccccn3)C[C@H]2C(=O)O)c2oc3ccccc3c2n1` [Compound 63, (2S,4S)-1-(2-methylbenzofuro[3,2-d]pyrimidin-4-yl)-4-((4-(pyridin-2-yl)-1H-pyrazol-3-yl)amino)pyrrolidine-2-carboxylic acid]: the IC50 at cGAS [4] (setting [7]) and at cGAS [4] (setting [8]) was 1 to 10 µM in each case.

For the compound `Cc1nc(N2C[C@@H](N(C)c3n[nH]cc3C)C[C@H]2C(=O)O)c2oc3ccccc3c2n1` [Compound 64, (2S,4S)-4-(methyl(4-methyl-1H-pyrazol-3-yl)amino)-1-(2-methylbenzofuro[3,2-d]pyrimidin-4-yl)pyrrolidine-2-carboxylic acid], the IC50 at cGAS [4] (setting [7]) and on cGAS [4] (setting [8]) was 1 to 10 µM each time.

For `Cc1nc(N2C[C@@H](Cc3nnn[nH]3)C[C@H]2CO)c2oc3ccccc3c2n1` [Compound 65, ((2S,4R)-4-((1H-tetrazol-5-yl)methyl)-1-(2-methylbenzofuro[3,2-d]pyrimidin-4-yl)pyrrolidin-2-yl)methanol], the IC50 at cGAS [4] (setting [7]) and at cGAS [4] (setting [8]) was 1 to 10 µM each time.

For the compound `Cc1nc(N2C[C@@H](NC(=O)C(C)(C)c3cn[nH]c3)C[C@H]2C(=O)O)c2oc3ccccc3c2n1` [Compound 66, (2S,4S)-4-(2-methyl-2-(1H-pyrazol-4-yl)propanamido)-1-(2-methylbenzofuro[3,2-d]pyrimidin-4-yl)pyrrolidine-2-carboxylic acid], the figures for the IC50 at cGAS [4] (setting [7]) and on cGAS [4] (setting [8]) were 1 to 10 µM and 0.1 to 0.5 µM, respectively.

As for `Cc1cc(CC(=O)N[C@H]2C[C@@H](C(=O)O)N(c3nc(C)nc4c3oc3ccccc34)C2)ccn1` [Compound 67, (2S,4S)-1-(2-methylbenzofuro[3,2-d]pyrimidin-4-yl)-4-(2-(2-methylpyridin-4-yl)acetamido)pyrrolidine-2-carboxylic acid], the results for the IC50 on cGAS [4] (setting [7]) and at cGAS [4] (setting [8]) were over 10 µM and 1 to 10 µM, respectively.

Turning to `Cc1nc(N2CC[C@H]2C(=O)O)c2oc3ccccc3c2n1` [Compound 68, (S)-1-(2-methylbenzofuro[3,2-d]pyrimidin-4-yl)azetidine-2-carboxylic acid], the IC50 on cGAS [4] (setting [7]) lay in the range of 1 to 10 µM; at cGAS [4] (setting [8]) it was 0.5 to 1 µM.

As to `Cc1nc(N2CCC[C@H]2C(=O)O)c2oc3cc(F)ccc3c2n1` [Compound 69, (7-fluoro-2-methylbenzofuro[3,2-d]pyrimidin-4-yl)-L-proline], the results for the IC50 on cGAS [4] (setting [7]) and on cGAS [4] (setting [8]) were 1 to 10 µM and 0.5 to 1 µM, respectively.

Turning to `CCN(CCO)CCCC(C)Nc1ccnc2cc(Cl)ccc12` (stereo not drawn) [hydroxychloroquine, reference compound], the cGAS-dependent cellular activity result in assay [1] was “not observed”.

With `CCN(CC)CCCC(C)Nc1c2ccc(Cl)cc2nc2ccc(OC)cc12` (stereo not drawn) [quinacrine, reference compound], the cGAS-dependent cellular activity result in assay [1] is reported as “not observed”.

As to `Cc1ccc(C(=O)Nc2ccc(S(=O)(=O)O)c3cc(S(=O)(=O)O)cc(S(=O)(=O)O)c23)cc1NC(=O)c1cccc(NC(=O)Nc2cccc(C(=O)Nc3cc(C(=O)Nc4ccc(S(=O)(=O)O)c5cc(S(=O)(=O)O)cc(S(=O)(=O)O)c45)ccc3C)c2)c1` [suramin, reference compound], in assay [1], the cGAS-dependent cellular activity entry is reported as “not observed”.
